According to BigSolDB 2.1:

CN1C(C(=O)Nc2ccccn2)=C(O)c2ccccc2S1(=O)=O
solubility (mole fraction)
Conditions | 293.2 K | 298.2 K | 303.2 K | 308.2 K | 313.2 K
in ethanol | 0.000103 | 0.000177 | 0.000334 | 0.000553 | 0.00078
in ethyl acetate | 0.00426 | 0.00497 | 0.0057 | 0.00661 | 0.00741
